Broadly, the EC50 is the concentration at which the effect is half-maximal.

Seven molecules from patent US9957298B2, “Peptides as oxytocin agonists” (Hoffmann-La Roche Inc., priority 2014, dated 2018) can be followed below.

What all share (format): cell-based
Test [1] concerns the target T1, human Oxytocin (OTR) receptor (Homo sapiens, UniProt P30559).
T1 construct: expressed in transfected cells
T1 sequence (P30559 1-389): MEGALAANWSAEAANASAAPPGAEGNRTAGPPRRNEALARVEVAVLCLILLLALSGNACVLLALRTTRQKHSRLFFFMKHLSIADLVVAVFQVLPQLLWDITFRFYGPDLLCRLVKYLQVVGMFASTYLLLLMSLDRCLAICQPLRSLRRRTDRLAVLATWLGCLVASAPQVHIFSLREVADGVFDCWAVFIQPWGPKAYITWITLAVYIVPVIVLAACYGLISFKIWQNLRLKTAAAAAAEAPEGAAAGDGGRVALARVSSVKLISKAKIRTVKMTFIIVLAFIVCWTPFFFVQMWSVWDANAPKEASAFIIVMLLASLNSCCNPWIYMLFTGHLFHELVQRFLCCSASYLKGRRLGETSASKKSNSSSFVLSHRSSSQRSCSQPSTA
As to the kind of experiment: Calcium flux assay (FLIPR), agonist mode, CHO cells expressing human oxytocin receptor. Conditions: for EC50: CHO cells, human OTR, calcium flux FLIPR, read-out: hOT EC50; for Emax: CHO, maximum response normalized to endogenous full agonist = 100%, read-out: hOT efficacy (%). From the text:
(§1) Chines Hamster Ovary (CHO) cells were transfected with expression plasmids encoding either the human V1a, the human Oxytocin (OTR) or the human V2 receptor, the later in combination with the chimeric Gqs5 G protein to redirect the signal to Calcium flux. Stable cells were cloned by limiting dilution to yield monoclonal cell lines expressing either human V1a, human V2+Gqs5 or human OTR receptors and selected based on functional responses detected on a fluorometric imaging plate reader (FLIPR) detecting Calcium flux in the cell after receptor activation. The stable cell lines were grown in F-12 K Nutrient Mixture (Kaighns Modification), containing 10% foetal bovine serum (FBS), 1% penicillin-streptomycin, 1% L-[…], 200 ug/ml Geneticin at 37° C. in a 10% CO2 incubator at 95% humidity.
(§2) On the afternoon before the assay, cells were plated at a density of 50,000 cells/well into black 96 well plates with clear bottoms to allow cell inspection and fluorescence measurements from the bottom of each well. The density of cells was sufficient to yield a confluent monolayer the next day. Hanks balanced salt solution, without phenol red, containing 20 mM HEPES (pH 7.3) and 2.5 mM probenecid (assay buffer) was prepared fresh for each experiment. Compound dilutions were made using a Beckman Biomek 2000 laboratory automation workstation, in assay buffer containing 1% DMSO. The dye-loading buffer consisted of a final concentration of 2 μM Fluo-4-AM (dissolved in DMSO and pluronic acid) in assay buffer. The existing culture media was removed from the wells and 100 μl of the dye-loading buffer was added to each well and incubated for approximately 60 min at 37° C. in a 5% CO2 incubator at 95% humidity. Once dye-loaded, the cells were washed thoroughly on an Embla cell washer with the assay buffer to remove any unincorporated dye. Exactly 100 μl assay buffer was left in each well.
(§3) Each 96 well plate containing dye-loaded cells was placed into the FLIPR machine and the laser intensity set to a suitable level to detect low basal fluorescence. To test compounds as agonists, 25 μl diluted compound was added to the plate 10 seconds into the fluorescent measurements and fluorescent response was recorded for 5 minutes. The fluorescence data was normalized to the endogenous full agonist dose-response set at 100% for the maximum response and 0% for the minimum. Each agonist concentration-response curve was constructed using a four parameter logistic equation with Microsoft Excel XLFit as follows: Y=Minimum+((Maximum−Minimum)/(1+10^(LogEC50-X)nH)), where y is the % normalized fluorescence, minimum is the minimum y, maximum is the maximum y, logEC50 is the log10 concentration which produces 50% of the maximum induced fluorescence, x is the log10 of the concentration of the agonist compound and H is the slope of the curve (the Hill Coefficient). The maximum value gives the efficacy of the agonist test compound in percentage. The concentration of agonist that produced a half-maximal response is represented by the EC50 value, the logarithm of which yielded the pEC50 value.
A general note: Calcium flux is commonly read through the fluorescence of an indicator in the cells.

For the next test, the target named is T2, human V1a receptor (Homo sapiens, UniProt P37288).
T2 construct: expressed in transfected cells
As to the kind of experiment: Calcium flux assay (FLIPR), agonist mode, CHO cells expressing human V1a receptor. Conditions: read-out: hV1a EC50.
From the text: as §1, §2, §3

A further test deals with T3, human V2 receptor (Homo sapiens, UniProt P30518).
T3 construct: expressed in transfected cells
As to the kind of experiment: Calcium flux assay (FLIPR), agonist mode, CHO cells expressing human V2 receptor + Gqs5. Conditions: for EC50: CHO cells, human V2 + chimeric Gqs5, calcium flux FLIPR, read-out: hV2 EC50; for hV2 efficacy (%): maximum response normalized to endogenous full agonist = 100%.
From the text: as §1, §2, §3

Starred links: 1 amine or outer side, 2 acyl side, 3 side chain; linkers in the order of their positions; H or OH if unused. Positions of bridges follow the written chain, without caps; N, C: chain ends. Non-standard residues stand in square brackets, D forms with d. Residues, ends and D or L forms follow the SMILES beside them. Chg = N[C@H](C(=O)O)C1CCCCC1; Phg = N[C@H](C(=O)O)c1ccccc1; Suc = O=C(CCC(=O)[*:2])[*:1]; hLeu = CC(C)CC[C@H](N)C(=O)O; Nva = CCC[C@H](N)C(=O)O; Dap = NC[C@H](N)C(=O)O; Sar = CNCC(=O)O

T3 sequence (P30518 whole entry): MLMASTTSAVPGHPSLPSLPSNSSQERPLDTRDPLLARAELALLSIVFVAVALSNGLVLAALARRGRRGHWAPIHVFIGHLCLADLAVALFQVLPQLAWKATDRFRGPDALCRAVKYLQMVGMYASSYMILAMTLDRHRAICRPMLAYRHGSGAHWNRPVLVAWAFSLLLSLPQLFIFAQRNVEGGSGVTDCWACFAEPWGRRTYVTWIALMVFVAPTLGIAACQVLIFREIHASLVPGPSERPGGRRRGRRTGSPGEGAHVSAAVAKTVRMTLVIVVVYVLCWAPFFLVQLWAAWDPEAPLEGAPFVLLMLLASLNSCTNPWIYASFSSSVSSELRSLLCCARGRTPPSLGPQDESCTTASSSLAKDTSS
T2 sequence (P37288 whole entry): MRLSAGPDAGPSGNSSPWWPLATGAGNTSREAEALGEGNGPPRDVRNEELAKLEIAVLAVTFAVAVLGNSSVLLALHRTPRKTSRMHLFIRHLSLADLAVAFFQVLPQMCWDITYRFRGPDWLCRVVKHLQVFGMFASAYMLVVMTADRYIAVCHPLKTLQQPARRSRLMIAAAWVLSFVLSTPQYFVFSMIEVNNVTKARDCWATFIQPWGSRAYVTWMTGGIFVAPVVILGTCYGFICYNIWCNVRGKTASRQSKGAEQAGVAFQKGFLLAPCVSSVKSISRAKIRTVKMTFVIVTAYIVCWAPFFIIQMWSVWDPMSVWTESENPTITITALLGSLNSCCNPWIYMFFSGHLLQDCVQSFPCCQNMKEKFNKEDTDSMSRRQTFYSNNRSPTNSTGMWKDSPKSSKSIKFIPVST

Consider `CC[C@H](C)[C@@H]1NC(=O)[C@H](Cc2ccc(O)cc2)NC(=O)CCC(=O)NC[C@@H](C(=O)N2CCC[C@H]2C(=O)N[C@H](C(=O)NCC(N)=O)c2ccccc2)NC(=O)[C@H](CC(N)=O)NC(=O)[C@H](CCC(N)=O)NC1=O` [Example 19] (YIQN[Dap]P[Phg]G-NH2; linker N-5 via Suc), for which the EC50 in test [1] was found to be 0.4 nM; at human V1a receptor it was 470 nM; at human V2 receptor it was 59 nM. Also, the Emax in test [1] was determined as 114%. Also, the “hV2 efficacy (%)” value on human V2 receptor was determined as 114%.

Turning to `CC[C@H](C)[C@@H]1NC(=O)[C@H](Cc2ccc(O)cc2)NC(=O)CCC(=O)NC[C@@H](C(=O)N2CCC[C@H]2C(=O)N[C@H](C(=O)NCC(N)=O)C2CCCCC2)NC(=O)[C@H](CC(N)=O)NC(=O)[C@H](CCC(N)=O)NC1=O` [Example 20] (YIQN[Dap]P[Chg]G-NH2; linker N-5 via Suc), in test [1], the EC50 amounted to 0.9 nM and the Emax is 117%. Besides, the EC50 at human V1a receptor stood at 562 nM. Further, at human V2 receptor, the EC50 came out at 174 nM and the “hV2 efficacy (%)” value is given as 112%.

On to `CC[C@H](C)[C@@H]1NC(=O)[C@H](Cc2ccc(O)cc2)NC(=O)CCC(=O)NC[C@@H](C(=O)N2CCC[C@H]2C(=O)N[C@@H](CCC(C)C)C(=O)NCC(N)=O)NC(=O)[C@H](CC(N)=O)NC(=O)[C@H](CCC(N)=O)NC1=O` [Example 22] (YIQN[Dap]P[hLeu]G-NH2; linker N-5 via Suc), for which, in test [1], the EC50 was determined as 0.8 nM and the Emax was determined as 109%. The EC50 at human V1a receptor is 391 nM. For the same molecule, at human V2 receptor, the EC50 turned out to be 176 nM and the “hV2 efficacy (%)” value is reported as 106%.

On to `CC[C@H](C)[C@@H]1NC(=O)[C@H](Cc2ccc(O)cc2)NC(=O)CCC(=O)NC[C@@H](C(=O)N(C)CC(=O)N[C@H](C(=O)NCC(N)=O)C2CCCCC2)NC(=O)[C@H](CC(N)=O)NC(=O)[C@H](CCC(N)=O)NC1=O` [Example 24] (YIQN[Dap][Sar][Chg]G-NH2; linker N-5 via Suc), for which, in test [1], the EC50 worked out at 0.5 nM and the Emax amounted to 104%. Moreover, the EC50 at human V1a receptor was over 27000 nM. Moreover, on human V2 receptor, the EC50 was 152 nM and the “hV2 efficacy (%)” value came out at 120%.

For `CC[C@H](C)[C@@H]1NC(=O)[C@H](Cc2ccc(O)cc2)NC(=O)CCC(=O)NC[C@@H](C(=O)N(C)CC(=O)N[C@@H](CCC(C)C)C(=O)NCC(N)=O)NC(=O)[C@H](CC(N)=O)NC(=O)[C@H](CCC(N)=O)NC1=O` [Example 25] (YIQN[Dap][Sar][hLeu]G-NH2; linker N-5 via Suc), in test [1], the EC50 amounted to 0.8 nM and the Emax was found to be 103%. Further, the EC50 on human V1a receptor was over 27000 nM. Further, on human V2 receptor, the EC50 worked out at 213 nM and the “hV2 efficacy (%)” value is on record as 118%.

As for `CC[C@H](C)[C@@H]1NC(=O)[C@H](Cc2ccc(O)cc2)NC(=O)CCC(=O)NC[C@@H](C(=O)N(C)CC(=O)N[C@@H](CCSC)C(=O)NCC(N)=O)NC(=O)[C@H](CC(N)=O)NC(=O)[C@H](CCC(N)=O)NC1=O` [Example 26] (YIQN[Dap][Sar]MG-NH2; linker N-5 via Suc), in test [1], the EC50 was found to be 0.5 nM and the Emax was 107%. Also, the EC50 at human V1a receptor was over 27000 nM. For the same molecule, at human V2 receptor, the EC50 came out at 281 nM and the “hV2 efficacy (%)” value was 119%.

Consider `CCC[C@H](NC(=O)CN(C)C(=O)[C@@H]1CNC(=O)CCC(=O)N[C@@H](Cc2ccc(O)cc2)C(=O)N[C@@H]([C@@H](C)CC)C(=O)N[C@@H](CCC(N)=O)C(=O)N[C@@H](CC(N)=O)C(=O)N1)C(=O)NCC(N)=O` [Example 27] (YIQN[Dap][Sar][Nva]G-NH2; linker N-5 via Suc), for which, in test [1], the EC50 came out at 0.8 nM and the Emax was determined as 107%. Moreover, on human V1a receptor, the EC50 is over 27000 nM. For the same molecule, at human V2 receptor, the EC50 came out at 282 nM and the “hV2 efficacy (%)” value came out at 114%.
